Assays:
Haemonchus contortus L3 = test: microbe, parasite or virus in culture; type: cell-based; conditions: Haemonchus contortus, 96 h, read-out: HcL3 Minimal Effective Concentration (MEC)
D. immitis microfilariae = test: Dirofilaria immitis, microfilariae (DiMF) in vitro motility assay; type: cell-based; conditions: Dirofilaria immitis, 72 h, read-out: DiMF minimally effective dose (MEC)
[1] = tested on: Trichostrongylus colubriformis; test: Jird efficacy model; type: in vivo; conditions: Trichostrongylus colubriformis, sc, 96 h, read-out: Jird % (percentage efficacy)

Compound | minimal effective concentration (Haemonchus contortus L3) | minimal effective concentration (D. immitis microfilariae) | inhibition in vivo at 10 mg/kg [1]
O=C(NCc1ccnc(Cl)c1)n1c2c(c3ccc(C(F)(F)F)cc31)CN(C/C=C/c1ccc(Cl)c(F)c1)CC2 [Example 152, (E)-2-(3-(4-chloro-3-fluorophenyl)allyl)-N-((2-chloropyridin-4-yl)methyl)-7-(trifluoromethyl)-1,2,3,4-tetrahydro-5H-pyrido[4,3-b]indole-5-carboxamide] | 1 µM | 3.3 µM | 99%
N#Cc1ccc(/C=C/CN2CCc3c(c4ccc(C(F)(F)F)cc4n3C(=O)NCc3ccnc(Cl)c3)C2)cc1 [Example 155, (E)-N-((2-chloropyridin-4-yl)methyl)-2-(3-(4-cyanophenyl)allyl)-7-(trifluoromethyl)-1,2,3,4-tetrahydro-5H-pyrido[4,3-b]indole-5-carboxamide] | 1 µM | 22.6 µM | 100%
O=C(NCc1ccnc(Cl)c1)n1c2c(c3ccc(C(F)(F)F)cc31)CN(C/C=C/c1ccc(Cl)cc1)CC2 [Example 156, (E)-2-(3-(4-chlorophenyl)allyl)-N-((2-chloropyridin-4-yl)methyl)-7-(trifluoromethyl)-1,2,3,4-tetrahydro-5H-pyrido[4,3-b]indole-5-carboxamide] | 0.5 µM | 33 µM | 99%
O=C(NCc1ccnc(F)c1)n1c2c(c3ccc(C(F)(F)F)cc31)CN(C/C=C/c1ccc(Cl)c(F)c1)CC2 [Example 163, (E)-2-(3-(4-chloro-3-fluorophenyl)allyl)-N-((2-fluoropyridin-4-yl)methyl)-7-(trifluoromethyl)-1,2,3,4-tetrahydro-5H-pyrido[4,3-b]indole-5-carboxamide] | 1.8 µM | 5.7 µM | 100%
N#Cc1ccc(/C=C/CN2CCc3c(c4ccc(C(F)(F)F)cc4n3C(=O)NCc3ccnc(F)c3)C2)cc1 [Example 164, (E)-2-(3-(4-cyanophenyl)allyl)-N-((2-fluoropyridin-4-yl)methyl)-7-(trifluoromethyl)-1,2,3,4-tetrahydro-5H-pyrido[4,3-b]indole-5-carboxamide] | 3.3 µM | 10 µM | 100%
O=C(NCc1ccnc(F)c1)n1c2c(c3ccc(C(F)(F)F)cc31)CN(C/C=C/c1ccc(Cl)cc1)CC2 [Example 165, (E)-2-(3-(4-chlorophenyl)allyl)-N-((2-fluoropyridin-4-yl)methyl)-7-(trifluoromethyl)-1,2,3,4-tetrahydro-5H-pyrido[4,3-b]indole-5-carboxamide] | 3.3 µM | 3.3 µM | 100%
N#Cc1ccc(/C=C/CN2CCc3c(c4cc(Br)ccc4n3C(=O)NCc3ccnc(Cl)c3)C2)cc1 [Example 184, (E)-8-bromo-N-((2-chloropyridin-4-yl)methyl)-2-(3-(4-cyanophenyl)allyl)-1,2,3,4-tetrahydro-5H-pyrido[4,3-b]indole-5-carboxamide] | 1 µM | 57.4 µM | 100%
O=C(NCc1ccnc(Cl)c1)n1c2c(c3cc(Br)ccc31)CN(C/C=C/c1ccc(Cl)cc1)CC2 [Example 185, (E)-8-bromo-2-(3-(4-chlorophenyl)allyl)-N-((2-chloropyridin-4-yl)methyl)-1,2,3,4-tetrahydro-5H-pyrido[4,3-b]indole-5-carboxamide] | 0.7 µM | 7.7 µM | 100%
O=C(NCc1ccnc(Cl)c1)n1c2c(c3ccc(Cl)cc31)CN(C/C=C/c1ccc(F)c(F)c1)CC2 [Example 211, (E)-7-chloro-N-((2-chloropyridin-4-yl)methyl)-2-(3-(3,4-difluorophenyl)allyl)-1,2,3,4-tetrahydro-5H-pyrido[4,3-b]indole-5-carboxamide] | 1 µM | 10 µM | 100%
O=C(NCc1ccnc(F)c1)n1c2c(c3ccc(Cl)cc31)CN(C/C=C/c1ccc(F)c(F)c1)CC2 [Example 228, (E)-7-chloro-2-(3-(3,4-difluorophenyl)allyl)-N-((2-fluoropyridin-4-yl)methyl)-1,2,3,4-tetrahydro-5H-pyrido[4,3-b]indole-5-carboxamide] | 1.8 µM | 3.3 µM | 98%
O=C(NCc1ccnc(F)c1)n1c2c(c3ccc(Cl)cc31)CN(C/C=C/c1ccc(Cl)cc1)CC2 [Example 229, (E)-7-chloro-2-(3-(4-chlorophenyl)allyl)-N-((2-fluoropyridin-4-yl)methyl)-1,2,3,4-tetrahydro-5H-pyrido[4,3-b]indole-5-carboxamide] | 3.3 µM | 10 µM | 100%
O=C(NCc1ccnc(F)c1)n1c2c(c3c(Cl)cccc31)CN(C/C=C/c1ccc(Cl)cc1)CC2 [Example 230, (E)-9-chloro-2-(3-(4-chlorophenyl)allyl)-N-((2-fluoropyridin-4-yl)methyl)-1,2,3,4-tetrahydro-5H-pyrido[4,3-b]indole-5-carboxamide] | 1.8 µM | 10 µM | 100%
O=C(NCc1ccnc(Cl)c1)n1c2c(c3cc(Cl)ccc31)CN(C/C=C/c1ccc(F)cc1F)CC2 [Example 238, (E)-8-chloro-N-((2-chloropyridin-4-yl)methyl)-2-(3-(2,4-difluorophenyl)allyl)-1,2,3,4-tetrahydro-5H-pyrido[4,3-b]indole-5-carboxamide] | 1 µM | 5.7 µM | 100%
O=C(NCc1ccnc(Cl)c1)n1c2c(c3cc(Cl)ccc31)CN(C/C=C/c1ccc(F)c(Cl)c1)CC2 [Example 239, (E)-8-chloro-2-(3-(3-chloro-4-fluorophenyl)allyl)-N-((2-chloropyridin-4-yl)methyl)-1,2,3,4-tetrahydro-5H-pyrido[4,3-b]indole-5-carboxamide] | 0.3 µM | 3.3 µM | 98%
O=C(NCc1ccnc(Cl)c1)n1c2c(c3cc(Cl)ccc31)CN(C/C=C/c1ccc(F)c(F)c1)CC2 [Example 240, (E)-8-chloro-N-((2-chloropyridin-4-yl)methyl)-2-(3-(3,4-difluorophenyl)allyl)-1,2,3,4-tetrahydro-5H-pyrido[4,3-b]indole-5-carboxamide] | 0.2 µM | 3.3 µM | 98%
O=C(NCc1ccnc(Cl)c1)n1c2c(c3cc(Cl)c(Cl)cc31)CN(C/C=C/c1ccc(F)cc1)CC2 [Example 282, (E)-7,8-dichloro-N-((2-chloropyridin-4-yl)methyl)-2-(3-(4-fluorophenyl)allyl)-1,2,3,4-tetrahydro-5H-pyrido[4,3-b]indole-5-carboxamide] | 0.3 µM | 3.3 µM | 100%
O=C(NCc1ccnc(Cl)c1)n1c2c(c3cc(F)c(Cl)cc31)CN(C/C=C/c1ccc(F)cc1)CC2 [Example 306, (E)-7-chloro-N-((2-chloropyridin-4-yl)methyl)-8-fluoro-2-(3-(4-fluorophenyl)allyl)-1,2,3,4-tetrahydro-5H-pyrido[4,3-b]indole-5-carboxamide] | 0.5 µM | 12.7 µM | 98%
